The results in this text go back to ChEMBL document CHEMBL4359825, “Synthesis of novel S-linked dihydroartemisinin derivatives and evaluation of their anticancer activity” (Eur J Med Chem, 2019).

What all share (format): functional
What all share (set-up): concentration or dose not given beside the values

For test [1], the system named is A549. As to the kind of experiment: Anticancer activity against human A549 cells assessed as cell viability measured after 72 hrs by MTT assay (reference value: 100 +/- 9.6 %). Background: Tetrazolium assays rely on reduction of a dye to a coloured formazan, in cell work by metabolically active cells.
Test [2] relates to LNCaP. In words: Anticancer activity against human LNCAP cells assessed as cell viability measured after 72 hrs by MTT assay (reference value: 100 +/- 5.0 %).
In test [3] the test system is MDA-MB-231. As to the kind of experiment: Anticancer activity against human MDA-MB-231 cells assessed as cell viability measured after 72 hrs by MTT assay (reference value: 100 +/- 20.0 %).
The test system of test [4] is A-431. As to the kind of experiment: Anticancer activity against human A431 cells assessed as cell viability measured after 72 hrs by MTT assay (reference value: 100 +/- 11.7 %).
Test [5] concerns PC-3. As to the kind of experiment: Anticancer activity against human PC3 cells assessed as cell viability measured after 72 hrs by MTT assay (reference value: 100 +/- 18.8 %).
In test [6] the test system is HepG2. As to the kind of experiment: Anticancer activity against human HepG2 cells assessed as cell viability measured after 72 hrs by MTT assay (reference value: 100 +/- 6.5 %).
The subject of test [7] is HeLa. In words: Anticancer activity against human HeLa cells assessed as cell viability measured after 72 hrs by MTT assay (reference value: 100 +/- 11.5 %).

Take `CCCCS[C@@H]1O[C@@H]2O[C@@]3(C)CC[C@H]4[C@H](C)CC[C@@H]([C@H]1C)[C@@]24OO3`: the Activity in test [1] was 96%; in test [2], 90%; in test [3], 90%; in test [4], 86%; in test [5], 92%; in test [6] it was 92%. Besides, in test [7], the Activity is on record as 82%.
On to `C[C@H]1[C@@H](Sc2ccc3ccccc3n2)O[C@@H]2O[C@@]3(C)CC[C@H]4[C@H](C)CC[C@@H]1[C@@]24OO3`, for which the Activity came to 87% in test [1]; 41% in test [2]; 78% in test [3]; 44% in test [4]; 39% in test [5]; 72% in test [6]. For the same molecule, the Activity in test [7] stood at 63%.
For the molecule `C[C@H]1[C@@H](Sc2cccc(C(=O)O)c2)O[C@@H]2O[C@@]3(C)CC[C@H]4[C@H](C)CC[C@@H]1[C@@]24OO3`, the Activity in test [1] was 89%; in test [2] it was 43%; in test [3], 97%; in test [4], 90%; in test [5] it was 41%; in test [6] it was 60%. The Activity in test [7] was determined as 58%.
Regarding `C[C@H]1[C@H](Sc2ccc([N+](=O)[O-])cc2)O[C@@H]2O[C@@]3(C)CC[C@H]4[C@H](C)CC[C@@H]1[C@@]24OO3`, the Activity is given as 70% in test [1]; 46% in test [2]; 98% in test [3]; 44% in test [4]; 50% in test [5]; 56% in test [6]. The Activity in test [7] is 50%.
As for `COC(=O)CS[C@H]1O[C@@H]2O[C@@]3(C)CC[C@H]4[C@H](C)CC[C@@H]([C@H]1C)[C@@]24OO3`, the Activity in test [1] is listed as 97%; in test [2], 71%; in test [3] it was 99%; in test [4], 77%; in test [5], 44%; in test [6] it was 94%. Also, the Activity in test [7] turned out to be 80%.
Turning to `COC(=O)CS[C@@H]1O[C@@H]2O[C@@]3(C)CC[C@H]4[C@H](C)CC[C@@H]([C@H]1C)[C@@]24OO3`, the Activity turned out to be 91% in test [1]; 60% in test [2]; 98% in test [3]; 75% in test [4]; 32% in test [5]; 80% in test [6]. Besides, in test [7], the Activity came out at 79%.
Take `C[C@H]1[C@H](Sc2ccc3ccccc3n2)O[C@@H]2O[C@@]3(C)CC[C@H]4[C@H](C)CC[C@@H]1[C@@]24OO3`: the Activity in test [1] amounted to 100%; in test [2], 77%; in test [3], 90%; in test [4], 93%; in test [5], 33%; in test [6] it was 96%. Also, in test [7], the Activity amounted to 87%.
With `C[C@H]1[C@H](Sc2ccc(C(=O)O)cc2)O[C@@H]2O[C@@]3(C)CC[C@H]4[C@H](C)CC[C@@H]1[C@@]24OO3`, the Activity in test [1] turned out to be 79%; in test [2], 47%; in test [3], 95%; in test [4], 58%; in test [5], 84%; in test [6] it was 64%. Further, the Activity in test [7] was found to be 60%.
On to `C[C@H]1[C@@H](Sc2nnnn2C)O[C@@H]2O[C@@]3(C)CC[C@H]4[C@H](C)CC[C@@H]1[C@@]24OO3`, for which the Activity in test [1] was 100%; in test [2], 97%; in test [3], 86%; in test [4], 97%; in test [5], 28%; in test [6], 93%. For the same molecule, in test [7], the Activity was found to be 93%.
Consider `CCCCS[C@H]1O[C@@H]2O[C@@]3(C)CC[C@H]4[C@H](C)CC[C@@H]([C@H]1C)[C@@]24OO3`, for which the Activity in test [1] worked out at 79%; in test [2], 47%; in test [3], 71%; in test [4], 47%; in test [5], 33%; in test [6] it was 52%. In addition, the Activity in test [7] is listed as 49%.
Turning to `C[C@H]1[C@@H](Sc2ccc(Cl)cc2)O[C@@H]2O[C@@]3(C)CC[C@H]4[C@H](C)CC[C@@H]1[C@@]24OO3`, the Activity was determined as 52% in test [1]; 37% in test [2]; 70% in test [3]; 36% in test [4]; 99% in test [5]; 36% in test [6]. Further, the Activity in test [7] worked out at 41%.
Take `CCCCCCS[C@@H]1O[C@@H]2O[C@@]3(C)CC[C@H]4[C@H](C)CC[C@@H]([C@H]1C)[C@@]24OO3`: the Activity amounted to 70% in test [1]; 36% in test [2]; 72% in test [3]; 35% in test [4]; 90% in test [5]; 35% in test [6]. For the same molecule, the Activity in test [7] is on record as 44%.
With `C[C@H]1[C@H](Sc2ccc(Cl)cc2)O[C@@H]2O[C@@]3(C)CC[C@H]4[C@H](C)CC[C@@H]1[C@@]24OO3`, the Activity is given as 55% in test [1]; 37% in test [2]; 97% in test [3]; 42% in test [4]; 70% in test [5]; 42% in test [6]. Also, the Activity in test [7] is on record as 48%.
Consider `C[C@H]1[C@H](Sc2nnnn2C)O[C@@H]2O[C@@]3(C)CC[C@H]4[C@H](C)CC[C@@H]1[C@@]24OO3`, for which the Activity in test [1] turned out to be 89%; in test [2], 78%; in test [3], 75%; in test [4] it was 87%; in test [5], 47%; in test [6], 95%. In addition, the Activity in test [7] is on record as 95%.
For the molecule `COC(=O)Cc1ccc(SC2O[C@@H]3O[C@@]4(C)CC[C@H]5[C@H](C)CC[C@@H]([C@H]2C)[C@@]35OO4)cc1` (some centres not stated), the Activity in test [1] stood at 74%; in test [2], 31%; in test [3] it was 96%; in test [4], 52%; in test [5], 31%; in test [6] it was 67%. Further, the Activity in test [7] is reported as 43%.
As for `C[C@H]1[C@@H](Sc2ccc(C(=O)O)cc2)O[C@@H]2O[C@@]3(C)CC[C@H]4[C@H](C)CC[C@@H]1[C@@]24OO3`, the Activity in test [1] is recorded as 76%; in test [2], 41%; in test [3], 64%; in test [4], 31%; in test [5], 32%; in test [6] it was 45%. Further, in test [7], the Activity came out at 55%.
